Reference: PubChem BioAssay (NCI)
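Values below derive from 48-hour exposures of cells grown in 96-well plates, with endpoints linearly interpolated between the two concentrations bracketing the appropriate inhibition level. TGI is the concentration that stops growth completely.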

Tests used:
Assay in all cases: NCI tumour cell line growth inhibition, 48 h
ACHN renal = test system: ACHN renal
LOX IMVI melanoma = test system: LOX IMVI melanoma
MDA-MB-435 = test system: MDA-MB-435
MOLT-4 leukemia = test system: MOLT-4 leukemia
NCI-H522 lung = test system: NCI-H522 lung
OVCAR-5 ovarian = test system: OVCAR-5 ovarian
RPMI-8226 leukemia = test system: RPMI-8226 leukemia
SF-268 CNS = test system: SF-268 CNS
SF-539 CNS = test system: SF-539 CNS
SK-OV-3 ovarian = test system: SK-OV-3 ovarian
U251 CNS = test system: U251 CNS
UACC-257 melanoma = test system: UACC-257 melanoma
RXF 393 renal = test system: RXF 393 renal

SMILES: CCCC[C@H]1CCN2C[C@@H](O)[C@@H](O)[C@H]2[C@@H]1O
- TGI (ACHN renal): > 100 µM
- TGI (LOX IMVI melanoma): > 100 µM
- TGI (MDA-MB-435): > 100 µM
- TGI (MOLT-4 leukemia): > 100 µM
- TGI (NCI-H522 lung): > 100 µM
- TGI (OVCAR-5 ovarian): > 100 µM
- TGI (RPMI-8226 leukemia): > 100 µM
- TGI (SF-268 CNS): > 100 µM
- TGI (SF-539 CNS): > 100 µM
- TGI (SK-OV-3 ovarian): > 100 µM
- TGI (U251 CNS): > 100 µM
- TGI (UACC-257 melanoma): > 100 µM

SMILES: CC(C)(C)S(=O)OC12CC3CC(CC(C3)C1)C2 (stereo not drawn)
- TGI (ACHN renal): > 100 µM
- TGI (LOX IMVI melanoma): > 100 µM
- TGI (MOLT-4 leukemia): > 100 µM
- TGI (NCI-H522 lung): > 100 µM
- TGI (OVCAR-5 ovarian): > 100 µM
- TGI (RPMI-8226 leukemia): > 100 µM
- TGI (RXF 393 renal): > 100 µM
- TGI (SF-268 CNS): > 100 µM
- TGI (SF-539 CNS): > 100 µM
- TGI (U251 CNS): > 100 µM

SMILES: CCOC(OC1=C(C#N)CCCC1)C(C)[Se]c1ccccc1 (stereo not drawn)
- TGI (ACHN renal): > 100 µM
- TGI (LOX IMVI melanoma): 30.5 µM
- TGI (MOLT-4 leukemia): 79.9 µM
- TGI (NCI-H522 lung): 30.8 µM
- TGI (OVCAR-5 ovarian): > 100 µM
- TGI (RPMI-8226 leukemia): 84 µM
- TGI (RXF 393 renal): 29.8 µM
- TGI (SF-268 CNS): 46.6 µM
- TGI (SF-539 CNS): 38 µM
- TGI (SK-OV-3 ovarian): > 100 µM
- TGI (U251 CNS): 32 µM
- TGI (UACC-257 melanoma): > 100 µM

SMILES: CCc1n[nH]c(=O)n1CCO
- TGI (ACHN renal): > 100 µM
- TGI (LOX IMVI melanoma): > 100 µM
- TGI (MDA-MB-435): > 100 µM
- TGI (MOLT-4 leukemia): > 100 µM
- TGI (OVCAR-5 ovarian): > 100 µM
- TGI (RPMI-8226 leukemia): > 100 µM
- TGI (SF-539 CNS): > 100 µM
- TGI (SK-OV-3 ovarian): > 100 µM
- TGI (U251 CNS): > 100 µM
- TGI (UACC-257 melanoma): > 100 µM

SMILES: C=CCn1c(-c2ccc(-c3cs/c(=N\N=O)n3CC=C)cc2)cs/c1=N\N=O
- TGI (ACHN renal): > 100 µM
- TGI (LOX IMVI melanoma): > 100 µM
- TGI (MDA-MB-435): > 100 µM
- TGI (MOLT-4 leukemia): > 100 µM
- TGI (NCI-H522 lung): > 100 µM
- TGI (OVCAR-5 ovarian): > 100 µM
- TGI (RXF 393 renal): 53 µM
- TGI (SF-268 CNS): > 100 µM
- TGI (SF-539 CNS): > 100 µM
- TGI (SK-OV-3 ovarian): > 100 µM
- TGI (U251 CNS): > 100 µM
- TGI (UACC-257 melanoma): > 100 µM

SMILES: Cc1cc(Cl)ccc1C1OC(=O)c2c1ccc1ccccc21 (stereo not drawn)
- TGI (ACHN renal): > 100 µM
- TGI (LOX IMVI melanoma): > 100 µM
- TGI (MOLT-4 leukemia): > 100 µM
- TGI (NCI-H522 lung): > 100 µM
- TGI (OVCAR-5 ovarian): > 100 µM
- TGI (RPMI-8226 leukemia): > 100 µM
- TGI (SF-268 CNS): > 100 µM
- TGI (SF-539 CNS): > 100 µM
- TGI (SK-OV-3 ovarian): > 100 µM
- TGI (U251 CNS): > 100 µM
- TGI (UACC-257 melanoma): > 100 µM

SMILES: CC(C)(C)OC(=O)N(CCCCNCc1ccc2ccccc2c1)CCCNCc1ccc2ccccc2c1
- TGI (ACHN renal): 3.39 µM
- TGI (MDA-MB-435): 3.47 µM
- TGI (MOLT-4 leukemia): 2.28 µM
- TGI (NCI-H522 lung): 3.07 µM
- TGI (OVCAR-5 ovarian): 3.22 µM
- TGI (SF-268 CNS): 3.29 µM
- TGI (SF-539 CNS): 2.97 µM
- TGI (SK-OV-3 ovarian): 3.56 µM
- TGI (U251 CNS): 3.49 µM
- TGI (UACC-257 melanoma): 3.42 µM

SMILES: Cc1ccc(S(=O)(=O)c2c(N)n(CCN(C)C)c3nc4ccccc4nc23)cc1
- TGI (ACHN renal): > 100 µM
- TGI (MOLT-4 leukemia): > 100 µM
- TGI (NCI-H522 lung): 58.7 µM
- TGI (OVCAR-5 ovarian): > 100 µM
- TGI (RPMI-8226 leukemia): > 100 µM
- TGI (SF-268 CNS): > 100 µM
- TGI (SF-539 CNS): > 100 µM
- TGI (SK-OV-3 ovarian): > 100 µM
- TGI (U251 CNS): > 100 µM
- TGI (UACC-257 melanoma): > 100 µM

SMILES: CC#CC(O)(C(=O)OC1CC2CCC(C1)N2C)C1CCCC1 (stereo not drawn)
- TGI (ACHN renal): > 100 µM
- TGI (LOX IMVI melanoma): > 100 µM
- TGI (MDA-MB-435): > 100 µM
- TGI (MOLT-4 leukemia): > 100 µM
- TGI (OVCAR-5 ovarian): > 100 µM
- TGI (RPMI-8226 leukemia): > 100 µM
- TGI (RXF 393 renal): > 100 µM
- TGI (SF-268 CNS): > 100 µM
- TGI (SF-539 CNS): > 100 µM
- TGI (SK-OV-3 ovarian): > 100 µM
- TGI (U251 CNS): > 100 µM
- TGI (UACC-257 melanoma): > 100 µM

SMILES: C=CCN1CN(c2ccccc2)C2(CCN(CCCC3(c4ccc(F)cc4)OCCO3)CC2)C1=O
- TGI (ACHN renal): 48.3 µM
- TGI (LOX IMVI melanoma): 34.5 µM
- TGI (MOLT-4 leukemia): 39.6 µM
- TGI (NCI-H522 lung): 36.7 µM
- TGI (OVCAR-5 ovarian): 23.8 µM
- TGI (RPMI-8226 leukemia): 34.2 µM
- TGI (RXF 393 renal): 28.1 µM
- TGI (SF-268 CNS): 38.5 µM
- TGI (SF-539 CNS): 23.1 µM
- TGI (SK-OV-3 ovarian): 43.3 µM
- TGI (U251 CNS): 29.4 µM
- TGI (UACC-257 melanoma): 33.3 µM

SMILES: N#CCCN(CCN(CCC#N)C(=O)Nc1ccccc1)C(=O)Nc1ccccc1
- TGI (ACHN renal): > 100 µM
- TGI (LOX IMVI melanoma): > 100 µM
- TGI (MOLT-4 leukemia): > 100 µM
- TGI (NCI-H522 lung): 98.4 µM
- TGI (OVCAR-5 ovarian): > 100 µM
- TGI (RPMI-8226 leukemia): > 100 µM
- TGI (RXF 393 renal): 75.3 µM
- TGI (SF-268 CNS): 87.9 µM
- TGI (SK-OV-3 ovarian): > 100 µM
- TGI (U251 CNS): > 100 µM
- TGI (UACC-257 melanoma): > 100 µM

SMILES: COc1ccc(CCc2nccn2C)cc1OC
- TGI (ACHN renal): > 100 µM
- TGI (LOX IMVI melanoma): > 100 µM
- TGI (MDA-MB-435): > 100 µM
- TGI (MOLT-4 leukemia): > 100 µM
- TGI (OVCAR-5 ovarian): > 100 µM
- TGI (RPMI-8226 leukemia): > 100 µM
- TGI (SF-268 CNS): > 100 µM
- TGI (SF-539 CNS): > 100 µM
- TGI (SK-OV-3 ovarian): > 100 µM
- TGI (UACC-257 melanoma): > 100 µM

SMILES: CCCCNC(=S)/N=C/c1c(O)c2ccccc2[nH]c1=O
- TGI (ACHN renal): > 10 µM
- TGI (MDA-MB-435): > 10 µM
- TGI (MOLT-4 leukemia): > 10 µM
- TGI (OVCAR-5 ovarian): > 10 µM
- TGI (RPMI-8226 leukemia): > 10 µM
- TGI (RXF 393 renal): > 10 µM
- TGI (SF-268 CNS): > 10 µM
- TGI (SF-539 CNS): > 10 µM
- TGI (U251 CNS): > 10 µM
- TGI (UACC-257 melanoma): > 10 µM

SMILES: O=c1[nH]n(Cc2ccccc2Cl)c2ccccc12
- TGI (ACHN renal): > 100 µM
- TGI (LOX IMVI melanoma): > 100 µM
- TGI (MDA-MB-435): > 100 µM
- TGI (MOLT-4 leukemia): > 100 µM
- TGI (NCI-H522 lung): > 100 µM
- TGI (OVCAR-5 ovarian): > 100 µM
- TGI (RPMI-8226 leukemia): > 100 µM
- TGI (SF-268 CNS): > 100 µM
- TGI (SF-539 CNS): > 100 µM
- TGI (U251 CNS): > 100 µM
- TGI (UACC-257 melanoma): > 100 µM

SMILES: Cc1ncc([N+](=O)[O-])n1CCNC(=O)Cn1c([N+](=O)[O-])cnc1C
- TGI (ACHN renal): > 100 µM
- TGI (MDA-MB-435): > 100 µM
- TGI (MOLT-4 leukemia): > 100 µM
- TGI (NCI-H522 lung): > 100 µM
- TGI (OVCAR-5 ovarian): > 100 µM
- TGI (SF-268 CNS): > 100 µM
- TGI (SF-539 CNS): > 100 µM
- TGI (SK-OV-3 ovarian): > 100 µM
- TGI (U251 CNS): > 100 µM
- TGI (UACC-257 melanoma): > 100 µM
